Experimental data taken from patent US20190375708A1 (VenatoRx Pharmaceuticals, Inc., priority 2018, published 2019).

What was measured:
[1] = In vitro cytotoxicity assay (MTT cell viability) in HepG2 cells; format: cell-based, human; settings: human
In short: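 HepG2 cells incubated 7 days at 37 °C, 5% CO2 with compounds from 30 μM to 1.0 nM (8 half-log dilutions). Viability read as MTT formazan absorbance at 492 nm, normalised to vehicle controls; CC50 from 4-parameter non-linear regression.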

[2] = tested on: HBV replication in HepAD38 cells; test: Anti-HBV replication assay in HepAD38 cells (QPCR of extracellular HBV DNA); format: cell-based, HBV (genotype D, serotype ayw); settings: Hepatitis B virus, 168 h, 7 days incubation, extracellular HBV DNA by QPCR, read-out: Anti-HBV EC50
In short: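 Read-out is QPCR of HBV DNA released into culture supernatant, converted to percent of vehicle control and fitted to give EC50. Cells were HepAD38 induced by tetracycline removal and dosed […] for 7 days.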

Compound `Cc1cc(NC(=O)c2c(C)c(C(=O)C(=O)NCC(O)c3ccsc3)n(C)c2C)ccc1F` (stereo not drawn) [Example 648, N-(4-fluoro-3-methylphenyl)-5-(2-((2-hydroxy-22-(thiophen-3-yl)ethyl)amino)-2-oxoacetyl)-1,2,4-trimethyl-1H-pyrrole-3-carboxamide] has a CC50 at 7 days [1] of over 30 µM and an EC50 [2] of under 0.05 µM.

In the case of `Cc1cc(NC(=O)c2c(C)c(C(=O)C(=O)NCCN3C(=O)CSC3=O)n(C)c2C)ccc1F` [Example 649, 5-(2-((2-(2,4-dioxothiazolidin-3-yl)ethyl)amino)-2-oxoacetyl)-N-(4-fluoro-3-methylphenyl)-1,2,4-trimethyl-1H-pyrrole-3-carboxamide], the CC50 at 7 days [1] is reported as over 30 µM and the EC50 [2] is reported as under 0.05 µM.

With `Cc1cc(NC(=O)c2c(C)c(C(=O)C(=O)NCCc3c(C)[nH][nH]c3=O)n(C)c2C)ccc1F` [Example 650, N-(4-fluoro-3-methylphenyl)-1,2,4-trimethyl-5-(2-((2-(5-methyl-3-oxo-2,3-dihdyro-1H-pyrazol-4-yl)ethyl)amino)-2-oxoacetyl)-1H-pyrrole-3-carboxamide] the CC50 at 7 days [1] was over 30 µM and the EC50 [2] was 0.05 to 0.499 µM.

In the case of `Cc1cc(NC(=O)c2c(C)c(C(=O)C(=O)NC(C)(C)CN3CCN(C)CC3)n(C)c2C)ccc1F` [Example 651, N-(4-fluoro-3-methylphenyl)-1,2,4-trimethyl-5-(2-((2-methyl-1-(4-methylpiperazin-1-yl)propan-2-yl)amino)-2-oxoacetyl)-1H-pyrrole-3-carboxamide], the CC50 at 7 days [1] is reported as over 30 µM and the EC50 [2] is reported as under 0.05 µM.

For `Cc1cc(NC(=O)c2c(C)c(C(=O)C(=O)NC3CCN(C4COC4)CC3)n(C)c2C)ccc1F` [Example 652, N-(4-fluoro-3-methylphenyl)-1,2,4-trimethyl-5-(2-((1-(oxetan-3-yl)piperidin-4-yl)amino)-2-oxoacetyl)-1H-pyrrole-3-carboxamide], the CC50 at 7 days [1] was over 30 µM and the EC50 [2] was under 0.05 µM.

`Cc1cc(NC(=O)c2c(C)c(C(=O)C(=O)NC3CCN(C4CCOCC4)CC3)n(C)c2C)ccc1F` [Example 653, N-(4-fluoro-3-methylphenyl)-1,2,4-trimethyl-5-(2-oxo-2-((1-(tetrahydro-2H-pyran-4-yl)piperidin-4-yl)mino)acetyl)-1H-pyrrole-3-carboxamide] gave a CC50 at 7 days [1] of over 30 µM and an EC50 [2] of 0.05 to 0.499 µM.

`Cc1cc(NC(=O)c2c(C)c(C(=O)C(=O)NC3CCN(C4CCSCC4)CC3)n(C)c2C)ccc1F` [Example 654, N-(4-fluoro-3-methylphenyl)-1,2,4-trimethyl-5-(2-oxo-2-((1-(tetrahydro-2H-thiopyran-4-yl)piperidin-4-yl)amino)acetyl)-1H-pyrrole-3-carboxamide] gave a CC50 at 7 days [1] of over 30 µM and an EC50 [2] of under 0.05 µM.

In the case of `Cc1cc(NC(=O)c2c(C)c(C(=O)C(=O)NC3CCN(c4cccs4)CC3)n(C)c2C)ccc1F` [Example 655], the CC50 at 7 days [1] is reported as over 30 µM and the EC50 [2] is reported as 0.05 to 0.499 µM.

In the case of `Cc1cc(NC(=O)c2c(C)c(C(=O)C(=O)NC3CCN(c4nccs4)CC3)n(C)c2C)ccc1F` [Example 656], the CC50 at 7 days [1] is reported as 5 to 30 µM and the EC50 [2] is reported as under 0.05 µM.

Compound `Cc1cc(NC(=O)c2c(C)c(C(=O)C(=O)NC3CCN(c4ccccn4)CC3)n(C)c2C)ccc1F` [Example 657, N-(44-fluoro-3-methylphenyl)-1,2,4-trimethyl-5-(2-oxo-2-((1-(pyridin-2-yl)piperidin-4-yl)amino)acetyl)-1H-pyrrole-3-carboxamide] has a CC50 at 7 days [1] of 5 to 30 µM and an EC50 [2] of under 0.05 µM.

`Cc1cc(NC(=O)c2c(C)c(C(=O)C(=O)NC3CCN(c4ncccn4)CC3)n(C)c2C)ccc1F` [Example 658] showed a CC50 at 7 days [1] of 5 to 30 µM and an EC50 [2] of under 0.05 µM.

Work on `Cc1cc(NC(=O)c2c(C)c(C(=O)C(=O)NC3CCN(c4cnccn4)CC3)n(C)c2C)ccc1F` [Example 659, N-(4-fluoro-3-methylphenyl)-1,2,4-trimethyl-5-(2-oxo-2-((1-(pyrazin-2-yl)piperidin-4-yl)amino)acetyl)-1H-pyrrole-3-carboxamide] yielded a CC50 at 7 days [1] of over 30 µM and an EC50 [2] of under 0.05 µM.

For `Cc1cc(NC(=O)c2c(C)c(C(=O)C(=O)NC3CCN(c4cccnn4)CC3)n(C)c2C)ccc1F` [Example 660, N-(4-fluoro-3-methylphenyl)-1,2,4-trimethyl-5-(2-oxo-2-((1-(pyridazin-3-yl)piperidin-4-yl)amino)acetyl)-1H-pyrrole-3-carboxamide], the CC50 at 7 days [1] was over 30 µM and the EC50 [2] was under 0.05 µM.

Work on `Cc1cc(NC(=O)c2c(C)c(C(=O)C(=O)NC3(CN4CCN(c5ccc(Cl)cc5)CC4)CC3)n(C)c2C)ccc1F` [Example 661, 5-(2-((1-((4-(4-chlorophenyl)piperazin-1-yl)methyl)cyclopropyl)amino)-2-oxoacetyl)-N-(4-fluoro-3-methylphenyl)-1,2,4-trimethyl-1H-pyrrole-3-carboxamide] yielded a CC50 at 7 days [1] of 5 to 30 µM and an EC50 [2] of under 0.05 µM.

Work on `Cc1cc(NC(=O)c2c(C)c(C(=O)C(=O)NC3CCN(c4ccncc4)CC3)n(C)c2C)ccc1F` [Example 662, N-(4-fluoro-3-methylphenyl)-1,2,4-trimethyl-5-(2-oxo-2-((1-(pyridin-4-yl)piperidin-4-yl)amino)acetyl)-1H-pyrrole-3-carboxamide] yielded a CC50 at 7 days [1] of over 30 µM and an EC50 [2] of under 0.05 µM.

With `Cc1cc(NC(=O)c2c(C)c(C(=O)C(=O)NC3CCN(c4cccnc4)CC3)n(C)c2C)ccc1F` [Example 663, N-(4-fluoro-3-methylphenyl)-1,2,4-trimethyl-5-(2-oxo-2-((1-(pyridin-3-yl)piperidin-4-yl)amino)acetyl)-1H-pyrrole-3-carboxamide] the CC50 at 7 days [1] was over 30 µM and the EC50 [2] was under 0.05 µM.

With `CC(=O)N1CC[C@@H](NC(=O)C(=O)c2c(C)c(C(=O)Nc3ccc(F)c(C)c3)c(C)n2C)C1` [Example 664, (R)-5-(2-((1-acetylpyrrolidin-3-yl)amino)-2-oxoacetyl)-N-(4-fluoro-3-methylphenyl)-1,2,4-trimethyl-1H-pyrrole-3-carboxamide] the CC50 at 7 days [1] was over 30 µM and the EC50 [2] was under 0.05 µM.

For `Cc1cc(NC(=O)c2c(C)c(C(=O)C(=O)N[C@@H]3CCN(S(C)(=O)=O)C3)n(C)c2C)ccc1F` [Example 665, (R)-N-(4-fluoro-3-methylphenyl)-1,2,4-trimethyl-5-(2-((1-(methylsulfonyl)pyrrolidin-3-yl)amino)-2-oxoacetyl)-1H-pyrrole-3-carboxamide], the CC50 at 7 days [1] was 5 to 30 µM and the EC50 [2] was under 0.05 µM.

Work on `CC(=O)N1CC[C@H](NC(=O)C(=O)c2c(C)c(C(=O)Nc3ccc(F)c(C)c3)c(C)n2C)C1` [Example 666, (S)-5-(2-((1-acetylpyrrolidin-3-yl)amino)-2-oxoacetyl)-N-(4-fluoro-3-methylphenyl)-1,2,4-trimethyl-1H-pyrrole-3-carboxamide] yielded a CC50 at 7 days [1] of over 30 µM and an EC50 [2] of under 0.05 µM.

Work on `Cc1cc(NC(=O)c2c(C)c(C(=O)C(=O)N[C@H]3CCN(S(C)(=O)=O)C3)n(C)c2C)ccc1F` [Example 667, (S)-N-(4-fluoro-3-methylphenyl)-1,2,4-trimethyl-5-(2-((1-(methylsulfonyl)pyrrolidin-3-yl)amino)-2-oxoacetyl)-1H-pyrrole-3-carboxamide] yielded a CC50 at 7 days [1] of 0.5 to 4.99 µM and an EC50 [2] of under 0.05 µM.

With `CC(=O)N[C@H]1C[C@@H](NC(=O)C(=O)c2c(C)c(C(=O)Nc3ccc(F)c(C)c3)c(C)n2C)C1` [Example 668, 5-(2-(((1s,3s)-3-acetamidocyclobutyl)amino)-2-oxoacetyl)-N-(4-fluoro-3-methylphenyl)-1,2,4-trimethyl-1H-pyrrole-3-carboxamide] the CC50 at 7 days [1] was over 30 µM and the EC50 [2] was under 0.05 µM.
